Where a name gives a salt, the structure may show the parent alone.
Columns and labels:
Assay in all cases: Method 1: intracellular Ca2+ release (FLIPR, Calcium 5) in recombinant CHO-K1 cells
Assay type in all cases: cell-based
human S1PR1 receptor = biological target: T1, human S1PR1 receptor (Homo sapiens, UniProt P21453); conditions: (1): determined with method 1; read-out: S1P1 EC50
T1 construct: host or cells: CHO-K1
Summary of the method: (§1)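 Agonist EC50 values come from nonlinear fits of FLIPR Ca2+ fluorescence, normalized to the phospho-fingolimod reference curve. Recombinant CHO-K1 (receptor plus Gq/i5, aequorin) dye-loaded 1 h at 37° C in pH 7.4 Hepes/probenecid/BSA buffer. Antagonist mode: 10 min preincubation before phospho-fingolimod at EC80.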

human S1PR5 receptor = biological target: T2, human S1PR5 receptor (Homo sapiens, UniProt Q9H228); conditions: agonist potency, determined with method 1 (symbols A-D); read-out: S1P5 EC50 range
T2 construct: host or cells: CHO-K1
Summary of the method: as §1

human S1PR4 receptor = biological target: T3, human S1PR4 receptor (Homo sapiens, UniProt O95977); conditions: (1): determined with method 1; read-out: S1P4 EC50
T3 construct: host or cells: CHO-K1
T3 sequence (O95977 1-384): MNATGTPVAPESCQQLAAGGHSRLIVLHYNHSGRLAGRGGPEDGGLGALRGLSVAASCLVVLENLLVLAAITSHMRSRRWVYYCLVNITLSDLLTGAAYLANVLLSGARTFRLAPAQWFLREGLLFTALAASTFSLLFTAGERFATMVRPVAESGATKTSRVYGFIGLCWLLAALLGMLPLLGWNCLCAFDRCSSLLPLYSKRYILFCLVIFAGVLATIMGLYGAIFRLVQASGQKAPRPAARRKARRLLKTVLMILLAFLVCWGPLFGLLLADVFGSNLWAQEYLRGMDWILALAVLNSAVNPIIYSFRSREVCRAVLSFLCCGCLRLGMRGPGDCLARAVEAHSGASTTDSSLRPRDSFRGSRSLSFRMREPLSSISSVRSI
Summary of the method: as §1

human S1PR3 receptor = biological target: T4, human S1PR3 receptor (Homo sapiens, UniProt Q99500); conditions: (1): determined with method 1; read-out: S1P3 EC50
T4 construct: host or cells: CHO-K1
Summary of the method: as §1

T1 sequence (P21453 whole entry): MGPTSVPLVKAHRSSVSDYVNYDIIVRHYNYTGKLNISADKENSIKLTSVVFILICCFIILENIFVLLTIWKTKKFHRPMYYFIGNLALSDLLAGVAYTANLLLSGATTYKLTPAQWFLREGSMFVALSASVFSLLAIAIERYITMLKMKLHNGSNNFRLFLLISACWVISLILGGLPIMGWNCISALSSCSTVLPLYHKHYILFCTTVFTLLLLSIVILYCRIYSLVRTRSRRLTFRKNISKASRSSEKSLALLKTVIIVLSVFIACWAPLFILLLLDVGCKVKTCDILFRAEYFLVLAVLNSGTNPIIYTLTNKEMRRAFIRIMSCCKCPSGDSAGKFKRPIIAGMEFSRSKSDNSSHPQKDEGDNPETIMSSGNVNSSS
T2 sequence (Q9H228 whole entry): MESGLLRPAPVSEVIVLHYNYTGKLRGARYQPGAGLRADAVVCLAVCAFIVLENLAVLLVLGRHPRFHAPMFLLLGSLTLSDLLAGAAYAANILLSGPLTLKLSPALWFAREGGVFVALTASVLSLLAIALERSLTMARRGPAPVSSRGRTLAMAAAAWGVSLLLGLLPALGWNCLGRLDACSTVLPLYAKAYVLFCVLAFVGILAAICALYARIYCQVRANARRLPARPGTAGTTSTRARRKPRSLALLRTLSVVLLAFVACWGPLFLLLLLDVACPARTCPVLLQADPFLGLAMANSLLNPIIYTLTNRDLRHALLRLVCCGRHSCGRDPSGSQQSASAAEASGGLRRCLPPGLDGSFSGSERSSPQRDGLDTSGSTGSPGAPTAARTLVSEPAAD
T4 sequence (Q99500 whole entry): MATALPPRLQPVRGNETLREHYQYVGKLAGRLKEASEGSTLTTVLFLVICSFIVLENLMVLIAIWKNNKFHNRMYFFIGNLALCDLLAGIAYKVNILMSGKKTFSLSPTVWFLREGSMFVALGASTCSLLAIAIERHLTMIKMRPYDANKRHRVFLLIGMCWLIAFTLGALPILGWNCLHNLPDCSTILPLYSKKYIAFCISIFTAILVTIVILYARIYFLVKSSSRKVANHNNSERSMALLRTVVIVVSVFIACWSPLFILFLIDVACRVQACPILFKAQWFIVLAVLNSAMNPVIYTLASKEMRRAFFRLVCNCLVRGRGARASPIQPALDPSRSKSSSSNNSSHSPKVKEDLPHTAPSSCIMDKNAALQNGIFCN

| Structure (SMILES) | EC50 (human S1PR1 receptor) [µM] | EC50 (human S1PR5 receptor) [µM] | EC50 (human S1PR4 receptor) [µM] | EC50 (human S1PR3 receptor) [µM] |
| --- | --- | --- | --- | --- |
| CSc1ccc(COc2ccc(-c3ncc4c(n3)CCN(CC(C)CC(=O)O)C4)cc2)cc1 (stereo not drawn) [Compound 257, 3-methyl-4-[2-[4-[(4-methylsulfanylphenyl)methoxy]phenyl]-7,8-dihydro-5H-pyrido[4,3-d]pyrimidin-6-yl]butanoic acid 2,2,2-trifluoroacetic acid salt] | > 1 | 0.01 to 0.1 | > 1 | > 1 |
| Cc1cc(-c2ncc3c(n2)CCN(CC(C)CC(=O)O)C3)ccc1OCc1ccc(Cl)cc1 (stereo not drawn) [Compound 258, 4-(2-(4-((4-chlorobenzyl)oxy)-3-methylphenyl)-7,8-dihydropyrido[4,3-d]pyrimidin-6(5H)-yl)-3-methylbutanoic acid] | > 1 | 0.01 to 0.1 | > 1 | > 1 |
| CC(CC(=O)O)CN1CCc2nc(-c3ccc(OCc4ccc(Cl)cc4)cc3)ncc2C1 (stereo not drawn) [Compound 259, 4-(2-(4-((4-chlorobenzyl)oxy)phenyl)-7,8-dihydropyrido[4,3-d]pyrimidin-6(5H)-yl)-3-methylbutanoic acid] | > 1 | 0.01 to 0.1 | > 1 | > 1 |
| CC(CC(=O)O)CN1CCc2nc(-c3ccc(OCc4ccccc4C(F)(F)F)cc3F)ncc2C1 (stereo not drawn) [Compound 260, 4-[2-[2-fluoro-4-[[2-(trifluoromethyl)phenyl]methoxy]phenyl]-7,8-dihydro-5H-pyrido[4,3-d]pyrimidin-6-yl]-3-methyl-butanoic acid 2,2,2-trifluoroacetic acid salt] | > 1 | 0.01 to 0.1 | > 1 | > 1 |
| CC(CC(=O)O)CN1CCc2nc(-c3ccc(OCc4ccc(C(F)(F)F)cc4)cc3F)ncc2C1 (stereo not drawn) [Compound 263, 4-[2-[2-fluoro-4-[[4-(trifluoromethyl)phenyl]methoxy]phenyl]-7,8-dihydro-5H-pyrido[4,3-d]pyrimidin-6-yl]-3-methyl-butanoic acid 2,2,2-trifluoroacetic acid salt] | > 1 | 0.01 to 0.1 | > 1 | > 1 |
| CC(CC(=O)O)CN1CCc2nc(-c3ccc(C(F)(F)Cc4ccc(Cl)cc4)cc3)ncc2C1 (stereo not drawn) [Compound 265, 4-(2-(4-(2-(4-chlorophenyl)-1,1-difluoroethyl)phenyl)-7,8-dihydropyrido[4,3-d]pyrimidin-6(5H)-yl)-3-methylbutanoic acid] | > 1 | 0.01 to 0.1 | > 1 | > 1 |
| C[C@@H](CC(=O)O)CN1CCc2nc(-c3ccc(OCc4ccc(Cl)cc4)cc3)ncc2C1=O [Compound 267, (S)-4-(2-(4-((4-chlorobenzyl)oxy)phenyl)-5-oxo-7,8-dihydropyrido[4,3-d]pyrimidin-6(5H)-yl)-3-methylbutanoic acid] | > 1 | 0.01 to 0.1 | > 1 | > 1 |
| CC(CC(=O)O)CN1CCc2nc(-c3ccc(OCc4cccc(Cl)c4Cl)cc3)ncc2C1 (stereo not drawn) [Compound 268, 4-[2-[4-[(2,3-dichlorophenyl)methoxy]phenyl]-7,8-dihydro-5H-pyrido[4,3-d]pyrimidin-6-yl]-3-methyl-butanoic acid 2,2,2-trifluoroacetic acid salt] | > 1 | 0.01 to 0.1 | > 1 | > 1 |
| CC(CC(=O)O)CN1CCc2nc(-c3ccc(OCc4ccc(Cl)c(Cl)c4)cc3F)ncc2C1 (stereo not drawn) [Compound 271, 4-[2-[4-[(3,4-dichlorophenyl)methoxy]-2-fluoro-phenyl]-7,8-dihydro-5H-pyrido[4,3-d]pyrimidin-6-yl]-3-methyl-butanoic acid 2,2,2-trifluoroacetic acid salt] | > 1 | 0.01 to 0.1 | > 1 | > 1 |

— patent publication US10556907B2 (AbbVie Inc., priority 2015, dated 2020)
